From patent US20070207975A1, “Materials and methods for treating and preventing Her-2/neu overexpressing, FAS-elevated cancer cells” (EVANSTON NORTHWESTERN HEALTHCARE, priority 2006, published 2007) come the findings set out here.

Holding throughout (assay type): cell-based, human
The subject of one experiment is p185^Her-2/neu. Kind of experiment: Flow cytometric analysis of cell surface-associated p185Her-2/neu. The following applies: for reduction of cell surface-associated p185^Her-2/neu expression: 10 mM OA, 48 hours, 0.1% FBS; for down-regulation of p185^Her-2/neu expression: OA 5 mM, trastuzumab 5 mg/ml. From the text: FIG. 1. […] FIG. 2. […] The amount of cell surface-associated p185^Her-2/neu was quantified by flow cytometric analyses using a specific antibody against the extracellular domain of p185^Her-2/neu (Ab-5), as described herein. The mean fluorescence signal±SD (n=3) was quantified using the geo mean fluorescence (GM) parameter provided with the Cell Quest Software (Becton Dickinson). […] After labeling, cells were washed thoroughly, and localization of p185^Her-2/neu was detected by indirect immunofluorescence by incubating with FITC-conjugated anti-mouse IgG. After counterstaining with DAPI, cells were examined and photographed using a Zeiss fluorescent microscope equipped with a built-in camera. […] Before experiments, cells were serum-starved overnight and then cultured in IMEM containing 0.1% FBS in the absence or presence of GLA (Sigma Chemical Co., St. Louis, Mo.). GLA was prepared at a concentration of 1 mg/mL in ethanol and was added to a final concentration of 0, 5, 10, or 20 μg/mL; an equal volume of ethanol was added to control cells. […] A) Cell surface expression of Her-2/neu protein in BT-474 and SK-Br3 cells was determined by flow cytometry using a mouse anti-Her-2/neu antibody directed against the extracellular domain of the p185^Her-2/neu oncoprotein (clone Ab-5; Oncogene Research Products; San Diego, Calif.). Briefly, after GLA or control treatment, cells were washed, harvested, resuspended in phosphate-buffered saline (PBS) containing 1% FBS, and incubated with 5 μg/mL Ab-5 antibody for 1 hour at 4° C. The cells were washed again and then incubated with a fluorescein isothiocyanate (FITC)-conjugated anti-mouse IgG secondary antibody (Jackson ImnunoResearch Laboratories, West Grove, Pa.) diluted 1:200 in cold PBS containing 1% FBS for 45 minutes at 4° C. The cells were washed once more in cold PBS, and flow cytometric analysis was performed with a FACScalibur flow cytometer (Becton Dickinson, San Diego, Calif.) equipped with Cell Quest Software (Becton Dickinson). […] As a control for nonspecific immunofluorescence, cells were stained with the secondary antibody alone (solid black line). The mean fluorescence signal associated with cells for labeled p185^Her-2/neu was quantified using the Geo Mean (GM) fluorescence parameter provided with the software. […] B) Immunoblot analysis of Her-2/neu and PEA3 proteins in control- and GLA-treated BT-474 and SK-Br3 cells. […] Immunoreactive bands were detected by enhanced chemiluminescence reagent (Pierce, Rockford, Ill.). Blots were reprobed with an anti-β-actin goat polyclonal antibody (Santa Cruz Biotechnology) to control for protein loading and transfer. Densitometric values of protein bands were quantified using Scion Imaging Software (Scion Corp., Frederick, Md.).

The next experiment has as its system BT-474 cells. Kind of experiment: TUNEL apoptosis assay, BT-474. The procedure: FIG. 6. […] The immunofluorescence photomicrographs of cells undergoing apoptosis (green staining) and the corresponding DAPI-counterstained photomicrographs are shown. […] Equal amounts of total protein (50 μg per lane) were subjected to Western blot analyses with a specific antibody against the p85 fragment of PARP, and then re-probed with a β-actin antibody. […] For each pair of columns, the height of the columns on the left represents the sum of the effect of each agent alone and, therefore, the expected apoptotic cell death if their effect was additive when used in combination. The total height of the columns on the right indicates the observed apoptosis when the agents were used in combination. […] A) Cell surface expression of Her-2/neu protein in BT-474 and SK-Br3 cells was determined by flow cytometry using a mouse anti-Her-2/neu antibody directed against the extracellular domain of the p185^Her-2/neu oncoprotein (clone Ab-5; Oncogene Research Products; San Diego, Calif.). […] The mean fluorescence signal associated with cells for labeled p185^Her-2/neu was quantified using the Geo Mean (GM) fluorescence parameter provided with the software. […] Immunoreactive bands were detected by enhanced chemiluminescence reagent (Pierce, Rockford, Ill.). […] Densitometric values of protein bands were quantified using Scion Imaging Software (Scion Corp., Frederick, Md.).

A further experiment has as its system SK-Br3 and BT-474 cells. The experiment in a line: Soft-agar colony-formation assay.
The next experiment has as its system Her-2/neu protein. Kind of experiment: Immunoblot analysis of Her-2/neu protein. For orientation: A western blot detects proteins with antibodies after separation by electrophoresis.
The next experiment concerns Her-2/neu mRNA. The experiment in a line: Semiquantitative RT-PCR of Her-2/neu transcripts.

Structures are written as SMILES.

For `CCCCCC=CCC=CCC=CCCCCC(=O)O` [GLA, 6,9,12-octadecatrienoic acid], in the experiment on p185^Her-2/neu (BT-474 and SK-Br3 cells, GLA 10 μg/mL for 48 hours), the “levels of cell surface-associated Her-2/neu protein versus vehicle-treated cells” value was “substantially lower”. The “cells that underwent apoptosis (TUNEL)” value in the experiment on BT-474 cells (GLA 10 μg/mL, trastuzumab 10 μg/mL, alone or together, 48 hours) was 5% (95% confidence interval [CI]=4% to 6%). Besides, the “anchorage-independent growth in soft agar, effect of GLA cotreatment” value in the experiment with SK-Br3 and BT-474 cells (BT-474 and SK-Br3, GLA with suboptimal doses of trastuzumab) is recorded as “enhanced the growth-inhibitory effects”. Further, the Her-2/neu protein levels result is “substantial reduction” in the experiment with Her-2/neu protein (BT-474 and SK-Br3, GLA 10 μg/mL for 48 hours); “did not affect” in the experiment on Her-2/neu protein (MDA-MB-231 (low Her-2/neu), GLA exposure); “markedly decreased” with Her-2/neu protein (MDA-MB-453, SK-OV3 and NCI-N87, GLA 10 μg/mL for 48 hours). Moreover, in the experiment on Her-2/neu mRNA (BT-474 and SK-Br3, GLA 5, 10, or 20 μg/ml for 48 hours), the “transcription of the Her-2/neu gene (RT-PCR)” value is “Strong, dose-dependent decreases”.
Turning to `CCCCCCCCC=CCCCCCCCC(=O)O` [OA, 9-octadecenoic acid], the results for the “reduction of cell surface-associated p185^Her-2/neu expression” value in the experiment on p185^Her-2/neu (BT-474 cells) and with p185^Her-2/neu (SK-Br3 cells) were “up to 46%” and “up to 36%”, respectively. The “down-regulation of p185^Her-2/neu expression” value in the experiment with p185^Her-2/neu (BT-474 cells, alone or concurrently combined) turned out to be 36%; in the experiment with p185^Her-2/neu (SK-Br3 cells, alone or combined), 24%. The TUNEL-positive cells in the experiment with BT-474 cells (OA 5 μM, trastuzumab 10 μg/ml, alone or simultaneously, 72 hours) was determined as 2%. Further, the “anchorage-independent colony formation in soft agar” value in the experiment on SK-Br3 and BT-474 cells (SK-Br3 and BT-474, OA, trastuzumab or co-exposure) was “slightly decreased”. The Her-2/neu protein levels entry is on record as “failed to decrease” with Her-2/neu protein (MCF-7/Her2-18 transfectants (SV40 promoter), OA treatment) and “not significantly affected” in the experiment on Her-2/neu protein (MCF-7/neo cells, OA supplementation). For the same compound, the Her-2/neu protein expression result with Her-2/neu protein (SK-Br3, SK-OV3 and NCI-N87, OA 20 μM, 48 hours) is reported as “down-regulation”. Also, the “expression levels of Her-2/neu transcripts (RT-PCR)” value in the experiment on Her-2/neu mRNA (OA-treated SK-Br3 cells) is reported as “significant reduction”.
